In patent publication US20260132129A1 (Genesis Therapeutics, Inc., priority 2022, published 2026):

Molecular target: T1, PI3Kα H1047R (T47D cells) (Homo sapiens, UniProt P42336, H1047R)
T1 construct: endogenous in cells; host or cells: T47D cells
Assay: PI3Kα cellular assay: pAKT HTRF in T47D cells after EGF stimulation
Assay type: cell-based
Conditions: for IC50: T47D cells (PI3Kα H1047R), pAKT S473 HTRF, EGF stimulation
Method in brief: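 T47D cells (PIK3CA H1047R) serum-starved 16 h, then treated 1 h at 37 °C with compound (10,000 nM top, 3-fold steps to 0.5 nM). After 10 min stimulation with 20 ng/mL EGF, cells were lysed and pAKT measured by HTRF.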

T1 sequence (P42336 whole entry H1047R): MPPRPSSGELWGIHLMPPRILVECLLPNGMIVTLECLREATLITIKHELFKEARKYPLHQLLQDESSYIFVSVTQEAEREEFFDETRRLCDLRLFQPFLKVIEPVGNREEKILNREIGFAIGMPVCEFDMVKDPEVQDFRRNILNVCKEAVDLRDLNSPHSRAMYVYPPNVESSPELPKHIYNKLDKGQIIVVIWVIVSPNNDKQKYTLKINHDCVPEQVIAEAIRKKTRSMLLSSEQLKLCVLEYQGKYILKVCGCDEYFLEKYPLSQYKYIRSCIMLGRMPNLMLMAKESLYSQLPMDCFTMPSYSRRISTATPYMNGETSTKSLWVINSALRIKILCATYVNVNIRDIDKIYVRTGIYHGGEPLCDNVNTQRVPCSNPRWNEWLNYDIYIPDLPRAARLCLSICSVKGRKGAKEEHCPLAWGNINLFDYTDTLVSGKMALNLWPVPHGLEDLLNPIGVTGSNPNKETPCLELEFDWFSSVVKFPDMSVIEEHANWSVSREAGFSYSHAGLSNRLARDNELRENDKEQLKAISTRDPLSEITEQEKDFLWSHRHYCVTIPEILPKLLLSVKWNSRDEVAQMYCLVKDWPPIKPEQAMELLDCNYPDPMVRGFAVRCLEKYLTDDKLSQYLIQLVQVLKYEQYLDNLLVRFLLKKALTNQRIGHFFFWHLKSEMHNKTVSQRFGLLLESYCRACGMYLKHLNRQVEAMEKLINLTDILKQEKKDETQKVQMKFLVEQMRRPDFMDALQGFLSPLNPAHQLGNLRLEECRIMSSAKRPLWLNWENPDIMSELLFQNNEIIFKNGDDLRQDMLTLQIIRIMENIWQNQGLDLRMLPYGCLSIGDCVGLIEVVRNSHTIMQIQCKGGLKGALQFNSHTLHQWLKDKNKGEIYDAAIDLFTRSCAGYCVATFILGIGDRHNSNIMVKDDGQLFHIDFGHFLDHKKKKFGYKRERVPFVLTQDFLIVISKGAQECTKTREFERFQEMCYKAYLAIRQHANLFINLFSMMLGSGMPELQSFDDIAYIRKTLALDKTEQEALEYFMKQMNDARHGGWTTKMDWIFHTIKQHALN
T1 sequence (P27986 whole entry partner): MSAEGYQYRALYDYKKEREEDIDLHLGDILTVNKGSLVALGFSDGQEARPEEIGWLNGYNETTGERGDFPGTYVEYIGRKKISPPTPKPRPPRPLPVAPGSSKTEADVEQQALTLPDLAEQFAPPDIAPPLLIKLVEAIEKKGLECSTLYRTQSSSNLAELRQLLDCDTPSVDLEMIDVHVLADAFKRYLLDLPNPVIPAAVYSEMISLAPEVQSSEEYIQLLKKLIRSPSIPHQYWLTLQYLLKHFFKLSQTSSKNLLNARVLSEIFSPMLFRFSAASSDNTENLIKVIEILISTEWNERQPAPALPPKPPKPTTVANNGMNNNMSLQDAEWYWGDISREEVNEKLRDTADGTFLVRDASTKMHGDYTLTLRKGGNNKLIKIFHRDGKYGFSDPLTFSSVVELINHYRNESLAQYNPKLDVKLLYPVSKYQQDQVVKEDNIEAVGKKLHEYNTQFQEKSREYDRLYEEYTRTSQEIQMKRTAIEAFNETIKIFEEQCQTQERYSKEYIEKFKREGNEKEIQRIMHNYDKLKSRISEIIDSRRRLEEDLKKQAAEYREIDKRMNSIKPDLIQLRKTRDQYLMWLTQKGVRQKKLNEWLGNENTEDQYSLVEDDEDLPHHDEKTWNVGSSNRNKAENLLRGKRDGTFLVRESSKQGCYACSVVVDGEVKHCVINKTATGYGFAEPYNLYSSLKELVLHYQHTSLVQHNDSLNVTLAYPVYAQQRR

SMILES | IC50 | T47D pAKT S473 HTRF IC50 (H1047R): T47D (H1047R) selectivity over SKBR3 (WT)
Cc1cc([C@@H](C)Nc2ccccc2S(C)(=O)=O)c2nc(-c3ccc(C4CCC(C)CC4)cc3)c(C)c(=O)n2c1 (stereo partly shown) [Compound 1354] |  | C (C denotes ≤5-fold)
Cc1cc(C(C)Nc2cccc3onc(O)c23)c2nc(-c3cccc(F)c3)c(C)c(=O)n2c1 (stereo not shown) [Compound 1356] |  | A (A denotes >20-fold)
Cc1ccc(N[C@H](C)c2cc(C)cn3c(=O)c(C)c(-c4cccc(F)c4)nc23)c(C(=O)O)c1 [Compound 1357] |  | C (C denotes ≤5-fold)
Cc1cc([C@@H](C)Nc2ccccc2C(=O)O)c2cc([C@@H]3CCCOC3)c(C#N)c(=O)n2c1 [Compound 1361] |  | A (A denotes >20-fold)
Cc1cc([C@H](C)Nc2ccccc2C(=O)O)c2nc(C3CCCOC3)c(C#N)c(=O)n2c1 (stereo partly shown) [Compound 1364] | > 2000 nM | C (C denotes ≤5-fold)
Cc1cc([C@@H](C)Nc2ccccc2-c2cc(O)no2)c2nc(-c3cccc(F)c3)c(C)c(=O)n2c1 [Compound 1368, (R)-2-(3-fluorophenyl)-9-(1-((2-(3-hydroxyisoxazol-5-yl)phenyl)amino)ethyl)-3,7-dimethyl-4H-pyrido[1,2-a]pyrimidin-4-one] | > 2000 nM | C (C denotes ≤5-fold)
Cc1cc([C@@H](C)Oc2ccccc2C(=O)O)c2nc(-c3cccc(F)c3)c(C)c(=O)n2c1 [Compound 1372] | > 2000 nM | C (C denotes ≤5-fold)
Cc1cc([C@H](C)Oc2ccccc2C(=O)O)c2nc(-c3cccc(F)c3)c(C)c(=O)n2c1 [Compound 1373] | > 2000 nM | C (C denotes ≤5-fold)
Cc1cc(C(C)Nc2cccc3onc(O)c23)c2nc(-c3cccc(F)c3)c(C)c(=O)n2c1 (stereo not shown) [Compound 1375] | > 2000 nM | C (C denotes ≤5-fold)
Cc1cc(C(C)Oc2ccccc2C2(O)CS(=O)(=O)C2)c2nc(-c3cccc(F)c3)c(C)c(=O)n2c1 (stereo not shown) [Compound 1382] |  | A (A denotes >20-fold)
Cc1cc(C(C)Nc2ccccc2C2(O)COC2)c2nc(-c3cccc(F)c3)c(C)c(=O)n2c1 (stereo not shown) [Compound 1389, 2-(3-fluorophenyl)-9-(1-((2-(3-hydroxyoxetan-3-yl)phenyl)amino)ethyl)-3,7-dimethyl-4H-pyrido[1,2-a]pyrimidin-4-one] | 500 to 2000 nM | B (B denotes 20-fold≥value>5-fold)
Cc1cc([C@@H](C)Oc2ccccc2C2(O)CS(=O)(=O)C2)c2nc(-c3cccc(F)c3)c(C)c(=O)n2c1 [Compound 1392] | > 2000 nM | C (C denotes ≤5-fold)
Cc1cc([C@H](C)Nc2cccc3onc(O)c23)c2nc(-c3ccccc3)c(C)c(=O)n2c1 [Compound 1403] |  | C (C denotes ≤5-fold)
Cc1cc([C@H](C)Nc2ccccc2-c2ccnnc2)c2cc([C@H]3CCCOC3)c(C)c(=O)n2c1 [Compound 1406] |  | A (A denotes >20-fold)

The next lines start with the values.

IC50 | T47D pAKT S473 HTRF IC50 (H1047R): T47D (H1047R) selectivity over SKBR3 (WT) | SMILES
100 to 500 nM | A (A denotes >20-fold) | Cc1cc(C(C)Nc2ccccc2C(=O)O)c2nc(C3CCCOC3)c(C#N)c(=O)n2c1 (stereo not shown) [Compound 1353]
100 to 500 nM | A (A denotes >20-fold) | Cc1cc(C(C)Nc2cccc3onc(O)c23)c2nc(-c3cccnc3)c(C)c(=O)n2c1 (stereo not shown) [Compound 1365, 9-(1-((3-hydroxybenzo[d]isoxazol-4-yl)amino)ethyl)-3,7-dimethyl-2-(pyridin-3-yl)-4H-pyrido[1,2-a]pyrimidin-4-one]
100 to 500 nM | A (A denotes >20-fold) | Cc1cc(C(C)Nc2ccccc2-c2cc(O)no2)c2nc(-c3cccc(F)c3)c(C)c(=O)n2c1 (stereo not shown) [Compound 1367, 2-(3-fluorophenyl)-9-(1-((2-(3-hydroxyisoxazol-5-yl)phenyl)amino)ethyl)-3,7-dimethyl-4H-pyrido[1,2-a]pyrimidin-4-one]
100 to 500 nM | A (A denotes >20-fold) | Cc1cc([C@@H](C)Nc2ccccc2C2(O)COC2)c2nc(-c3cccc(F)c3)c(C)c(=O)n2c1 [Compound 1399]
< 100 nM | A (A denotes >20-fold) | Cc1cc([C@H](C)Nc2ccccc2-c2ccnnc2)c2nc([C@@H]3CCCOC3)c(C)c(=O)n2c1 [Compound 1407]
< 100 nM | A (A denotes >20-fold) | Cc1cc(C(C)Nc2ccccc2C(=O)O)c2nc(-c3ccncc3)c(C)c(=O)n2c1 (stereo not shown) [Compound 1408, 2-((1-(3,7-dimethyl-4-oxo-2-(pyridin-4-yl)-4H-pyrido[1,2-a]pyrimidin-9-yl)ethyl)amino)benzoic acid]
100 to 500 nM | A (A denotes >20-fold) | Cc1cc(C(C)Nc2ccsc2-c2ccnnc2)c2nc(N3Cc4ccccc4C3)c(C)c(=O)n2c1 (stereo not shown) [Compound 1409, 2-(isoindolin-2-yl)-3,7-dimethyl-9-(1-((2-(pyridazin-4-yl)thiophen-3-yl)amino)ethyl)-4H-pyrido[1,2-a]pyrimidin-4-one]
< 100 nM | A (A denotes >20-fold) | Cc1cc(C(C)Nc2ccccc2C(=O)O)c2nc(-c3cnc4c(c3)c(C)c(C)n4C)c(C)c(=O)n2c1 (stereo not shown) [Compound 1410, 2-((1-(3,7-dimethyl-4-oxo-2-(1,2,3-trimethyl-1H-pyrrolo[2,3-b]pyridin-5-yl)-4H-pyrido[1,2-a]pyrimidin-9-yl)ethyl)amino)benzoic acid]
< 100 nM | A (A denotes >20-fold) | Cc1cc(C(C)Nc2ccccc2C(=O)O)c2nc(-c3cnc4c(c3)c(C)nn4C)c(C)c(=O)n2c1 (stereo not shown) [Compound 1411, 2-((1-(2-(1,3-dimethyl-1H-pyrazolo[3,4-b]pyridin-5-yl)-3,7-dimethyl-4-oxo-4H-pyrido[1,2-a]pyrimidin-9-yl)ethyl)amino)benzoic acid]
< 100 nM | A (A denotes >20-fold) | Cc1cc(C(C)Nc2ccccc2C(=O)O)c2nc(N3Cc4ccccc4C3)c(C)c(=O)n2c1.O=C(O)C(F)(F)F (stereo not shown) [Compound 1412, 2-((1-(2-(isoindolin-2-yl)-3,7-dimethyl-4-oxo-4H-pyrido[1,2-a]pyrimidin-9-yl)ethyl)amino)benzoic acid trifluoroacetate]
100 to 500 nM | A (A denotes >20-fold) | Cc1cc(C(C)Nc2ccccc2C(=O)O)c2nc(-c3cc(C)c4oc(=O)[nH]c4c3)cc(=O)n2c1 (stereo not shown) [Compound 1413, 2-((1-(7-methyl-2-(7-methyl-2-oxo-2,3-dihydrobenzo[d]oxazol-5-yl)-4-oxo-4H-pyrido[1,2-a]pyrimidin-9-yl)ethyl)amino)benzoic acid]
